From patent US20260078089A1, “BIOACTIVE PHYTOCHEMICALS IN ZIZYPHUS AND GUARANA” (Phytoquest Limited, priority 2018, published 2026)

Assays:
[1] = system: sialidase of T. forsythia homogenate; experiment: Sialidase activity of homogenate of T. forsythia; format: biochemical, Tannerella forsythia; conditions: 2 mM Zanamivir; 1500 μg/ml Zizyphus
Procedure: (§1) MU release can be used to quantify sialidase activity.
(§2) Whole bacteria or purified sialidases were exposed to MUNANA, in the presence or absence of compound 1 (Example 3) or Zizyphus fruit 50% aqueous ethanol extract containing 1% of the N-methyl-prolines.
(§3) […] Reactions were stopped at 30 seconds and 60 seconds via addition of ph 10.5 60 mM sodium carbonate buffer. Release of fluorogenic MU was quantified by measuring fluorescence emission at 450 nm, excitation 350 nm. Percentage sialidase activity was expressed as the change in fluorescence between 30 seconds and 60 seconds compared to that of a reaction without inhibitor. Reactions were carried out in triplicate.

[2] = system: sialidase of P. gingivalis homogenate; experiment: Sialidase activity of homogenate of P. gingivalis; format: biochemical, Porphyromonas gingivalis; conditions: 2 mM Zanamivir; 1500 μg/ml Zizyphus
Procedure: as §1, §2, §3

[3] = system: N1Neu; experiment: N1Neu sialidase inhibition screen; format: biochemical; conditions: 2 mM Zanamivir; 1500 ug Zizyphus extract; 10 minute time point
Procedure: An initial screen of N1Neu inhibition using a variety of compounds and the commercially available sialidase (neuraminidase) inhibitor Zanamivir (which is sold in the pharmaceutical preparation “Relenza™” as a treatment for flu) was performed.
Sialidase assays were performed, reactions contained 0.1 mM MUNANA, pH 7.4 50 mM Tris, 5 mM CaCl2), 200 mM NaCl, plant extract or the control sialidase inhibitor Zanamivir at the concentrations indicated, or no putative inhibitor. N1Neu was present at 0.025 μg/ml in reactions. 50 μl of these reactions were quenched using 100 μl of 100 mM sodium carbonate buffer, pH 10.5, at 5 minutes and 10 minutes. The 10 minute time point was used to assess sialidase activity. Data shown represent the mean of one experiment, where each condition was repeated in triplicate. MU present in quenched reactions was quantified using TECAN M200 Infinite microplate reader at excitation 340 nm emission 430 nm, and expressed as the percentage of sialidase activity (MU fluorescence) relative to the no inhibitor condition.

CC(=O)N[C@H]1[C@H]([C@H](O)[C@H](O)CO)OC(C(=O)O)=C[C@@H]1N=C(N)N [Zanamivir]
% inhibition [1]: 22% | % inhibition [2]: 51% | % inhibition [3]: 100%
